Assay results: patent EP1377579B1 (Aventis Pharmaceuticals Inc., priority 2000, dated 2002)
Structures can show the parent of a compound that is named as a salt.

How the values were obtained:
MDA-MB-435 = assay: In vitro proliferation assay (MTT), MDA-MB-435; format: cell-based, human; conditions: Homo sapiens, MDA-MB-435, MTT assay; value (SD, n) where given; read-out: MB-435 Breast (IC50 µM)
Method in brief: (§1)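 Cells plated at 1000 to 2500 cells/well, allowed to attach overnight, then exposed to compounds for 3 days. Viable cells estimated by MTT dye, solubilized in DMSO, absorbance at 570 nm; IC50 taken from raw data.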

cdk1/cyclin B = cdk1/cyclin B (Homo sapiens, UniProt P06493); assay: Cyclin-dependent kinase assay, cdk1/cyclin B; conditions: CDK1 IC50, nM, Histone H1, 10 µM ATP
Protocol: The IC50 values for cdk1/cyclin B, cdk2/cyclin E, and cdk4/cyclin D1 inhibition are determined using the following methods: • The cdk1 sequence (accession number Y00272) is amplified by PCR and cloned into the BamHI and SalI sites of pFASTBAC1 (Life Technologies).
The cyclin B1 sequence (accession number M25753) is amplified by PCR and cloned into the BamHI and SalI sites of pFASTBAC1 (Life Technologies).
The insect cell (Sf9) expression is optimized for each of the CDK/cyclin pairs according to the manufacturer's protocols (Life Technologies). For cdk4-HA/cyclin D1-His6 an infection of 0.1 multiplicity of infection (MOI) for 48 hours gives the best expression levels of the complex as well as activity.
The viruses are added to the cells and the culture is incubated at 27°C for the desired time. The cells are harvested by centrifugation at 3000 rpm for 10 minutes. The cells are snap frozen on dry ice and stored at - 80°C.
Cell extracts are made following a standard procedure. The cell pellet is resuspended in lysis buffer (50 mM HEPES, pH 8.0, 10 mM MgCl2, 1 mM DTT, 2.5 mM EGTA, 1 mM EDTA, 10 mM β-glycerophosphate, 1 mM sodium vanadate, 1 mM sodium fluoride, 1 x Protease inhibitor cocktail). The cells are lysed using the microfluidizer (Microfluidics) for 20 minutes. Cell debris is removed by centrifugation at 100,000 x g. The cell extracts are aliquoted in 1 ml aliquots, frozen on dry ice, and stored at -80°C.
The kinase reactions are performed following a standard procedure. The enzyme and inhibitor are diluted in kinase buffer (50 mM HEPES, pH 8.0, 10 mM MgCl2, 2.5 mM EGTA, 10 mM β-glycerophosphate, 1 mM sodium vanadate, 1 mM sodium fluoride, and 1 mM DTT) and pre-incubated for 30 minutes. […] The cdk1 enzyme activity is assayed using Histone H1 (Sigma) in the presence of 10 µM ATP for 30 min at room temperature. The reactions are terminated by the addition of 50 µL of 10 mM cold ATP to stop the reactions. The reactions are transferred to a pre-soaked 96-well multi-screen plate containing 30 µL of 100% TCA per well. After incubation for one hour at room temperature, the plates are washed twice with 200 µl of 20% TCA, followed by 200 µl of 10% TCA and finally with 200 µl of 5% TCA. After drying the plates at room temperature, the filter plates are placed in adapter plates (Packard) and 40 µl of Microscint-O® (Packard) is added to each well. Top Seal A film is used to cover the plates before counting in a Top Count Scintillation Counter.
The % remained activity of the indicated Cdk/cyclin kinase complex in the presence of inhibitor is calculated by the ratio of cpm in the presence of inhibitor to cpm in the absence of inhibitor (%Activity = vi/vo x 100%).

cdk2/cyclin E = cdk2/cyclin E (Homo sapiens, UniProt P24941); assay: Cyclin-dependent kinase assay, cdk2/cyclin E; conditions: CDK2 IC50, nM, GST-pRb substrate, 10 µM ATP
cdk4/cyclin D1 = cdk4/cyclin D1 (Homo sapiens, UniProt P11802); assay: Cyclin-dependent kinase assay, cdk4/cyclin D1; format: biochemical; conditions: cyclin D1/cdk4; GST-pRb substrate, 10 µM ATP
PC-3 = assay: In vitro proliferation assay (MTT), PC-3; format: cell-based, human; conditions: Homo sapiens, PC-3, MTT assay; value (SD, n) where given; read-out: PC-3 Prostate (IC50 µM)
Method in brief: as §1

Sequence of cdk1/cyclin B (P06493 whole entry): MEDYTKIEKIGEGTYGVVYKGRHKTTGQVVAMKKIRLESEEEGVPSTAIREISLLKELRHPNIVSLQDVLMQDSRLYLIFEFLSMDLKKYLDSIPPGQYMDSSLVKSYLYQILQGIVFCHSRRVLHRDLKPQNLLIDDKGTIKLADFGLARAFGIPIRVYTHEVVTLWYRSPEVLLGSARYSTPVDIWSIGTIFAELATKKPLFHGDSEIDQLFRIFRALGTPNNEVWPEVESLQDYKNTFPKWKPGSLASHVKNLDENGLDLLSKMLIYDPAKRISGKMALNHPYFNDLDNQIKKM
Sequence of cdk1/cyclin B (P14635 whole entry partner): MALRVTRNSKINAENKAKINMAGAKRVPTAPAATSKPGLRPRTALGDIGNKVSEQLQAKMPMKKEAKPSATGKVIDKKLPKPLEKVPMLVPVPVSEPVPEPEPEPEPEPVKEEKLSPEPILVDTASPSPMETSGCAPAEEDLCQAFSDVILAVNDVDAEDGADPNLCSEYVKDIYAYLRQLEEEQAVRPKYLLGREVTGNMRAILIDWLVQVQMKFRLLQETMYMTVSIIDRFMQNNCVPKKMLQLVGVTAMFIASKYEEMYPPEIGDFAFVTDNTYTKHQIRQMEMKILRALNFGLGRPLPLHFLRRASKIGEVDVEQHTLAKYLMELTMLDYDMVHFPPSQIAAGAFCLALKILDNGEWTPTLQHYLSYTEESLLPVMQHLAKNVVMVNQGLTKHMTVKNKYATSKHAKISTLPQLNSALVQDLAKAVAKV
Sequence of cdk4/cyclin D1 (P11802 whole entry): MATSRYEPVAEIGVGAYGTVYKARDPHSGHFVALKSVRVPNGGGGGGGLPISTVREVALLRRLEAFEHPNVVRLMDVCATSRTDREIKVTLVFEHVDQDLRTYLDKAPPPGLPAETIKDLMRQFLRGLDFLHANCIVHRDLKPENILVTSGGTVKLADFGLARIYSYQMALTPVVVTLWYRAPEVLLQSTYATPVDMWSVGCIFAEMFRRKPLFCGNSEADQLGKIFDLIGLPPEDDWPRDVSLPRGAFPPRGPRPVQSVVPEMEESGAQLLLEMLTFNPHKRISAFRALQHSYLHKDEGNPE
Sequence of cdk4/cyclin D1 (P24385 whole entry partner): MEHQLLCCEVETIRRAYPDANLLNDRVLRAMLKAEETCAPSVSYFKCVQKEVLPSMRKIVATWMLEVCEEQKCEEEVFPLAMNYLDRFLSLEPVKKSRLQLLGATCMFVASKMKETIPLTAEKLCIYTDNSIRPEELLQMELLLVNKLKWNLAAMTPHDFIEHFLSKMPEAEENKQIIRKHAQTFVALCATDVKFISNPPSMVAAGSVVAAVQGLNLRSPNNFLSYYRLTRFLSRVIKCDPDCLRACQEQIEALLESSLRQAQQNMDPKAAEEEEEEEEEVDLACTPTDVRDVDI

Row | SMILES | IC50 (MDA-MB-435) | IC50 (cdk1/cyclin B) | IC50 (cdk2/cyclin E) | IC50 (cdk4/cyclin D1) | IC50 (PC-3)
1 | N[C@H]1CC[C@H](Nc2nc(NC3CCN(S(=O)(=O)c4cccc(C(=O)O)c4)CC3)c3ncn(C4CCCC4)c3n2)CC1 [compound 135, dihydrochloride] | 3.38 µM | 80 nM | 4 nM | 62 nM | 4.05 µM
2 | N[C@H]1CC[C@H](Nc2nc(NC3CCN(S(=O)(=O)c4ccccc4Br)CC3)c3ncn(C4CCCC4)c3n2)CC1 [compound 136, trans-N^2-(4-Amino-cyclohexyl)-9-cyclopentyl-N^6-[1-(2-bromo-benzenesulfonyl)-piperidin-4-yl]-9H-purine-2,6-diamine dihydrochloride] | 0.44 µM | 50 nM | 37 nM | 10 nM | 0.68 µM
3 | COc1ccc(S(=O)(=O)N2CCC(Nc3nc(N[C@H]4CC[C@H](N)CC4)nc4c3ncn4C3CCCC3)CC2)cc1OC [compound 137, trans-N^2-(4-Amino-cyclohexyl)-9-cyclopentyl-N^6-[1-(3,4-dimethoxy-benzenesulfonyl)-piperidin-4-yl]-9H-purine-2,6-diamine dihydrochloride] | 0.47 µM | 26 nM | 7 nM | 144 nM | 1.15 µM
4 | N[C@H]1CC[C@H](Nc2nc(NC3CCN(S(=O)(=O)c4ccc(Cl)c(Cl)c4)CC3)c3ncn(C4CCCC4)c3n2)CC1 [compound 138, trans-N^2-(4-Amino-cyclohexyl)-9-cyclopentyl-N^6-[1-(3,4-dichloro-benzenesulfonyl)-piperidin-4-yl]-9H-purine-2,6-diamine dihydrochloride] | 0.54 µM | 40 nM | 60 nM | 69 nM | 1.16 µM
5 | CCS(=O)(=O)N1CCC(Nc2nc(N[C@H]3CC[C@H](N)CC3)nc3c2ncn3C2CCCC2)CC1 [compound 139, trans-N^2-(4-Amino-cyclohexyl)-9-cyclopentyl-N^6-(1-ethanesulfonyl-piperidin-4-yl)-9H-purine-2,6-diamine dihydrochloride] | 1.19 µM | 23 nM | 6 nM | 64 nM | 1.13 µM
6 | N[C@H]1CC[C@H](Nc2nc(NC3CCN(S(=O)(=O)c4ccc(Cl)c([N+](=O)[O-])c4)CC3)c3ncn(C4CCCC4)c3n2)CC1 [compound 140, trans-N^2-(4-Amino-cyclohexyl)-N^6-[1-(4-chloro-3-nitro-benzenesulfonyl)-piperidin-4-yl]-9-cyclopentyl-9H-purine-2,6-diamine dihydrochloride] | 2.76 µM | 36 nM | 41 nM | 75 nM | 4.56 µM
7 | CN(C)c1cccc2c(S(=O)(=O)N3CCC(Nc4nc(N[C@H]5CC[C@H](N)CC5)nc5c4ncn5C4CCCC4)CC3)cccc12 [compound 141, trans-N^2-(4-Amino-cyclohexyl)-9-cyclopentyl-N^6-[1-(5-dimethylamino-naphthalene-1-sulfonyl)-piperidin-4-yl]-9H-purine-2,6-diamine dihydrochloride] | 0.86 µM | 27 nM | 61 nM | 66 nM | 1.49 µM
8 | COc1ccc(S(=O)(=O)N2CCC(Nc3nc(N[C@H]4CC[C@H](N)CC4)nc4c3ncn4C3CCCC3)CC2)cc1 [compound 142, trans-N^2-(4-Amino-cyclohexyl)-9-cyclopentyl-N^6-[1-(4-methoxy-benzenesulfonyl)-piperidin-4-yl]-9H-purine-2,6-diamine dihydrochloride] | 0.38 µM | < 5 nM | 9 nM | 47 nM | 0.61 µM
9 | N[C@H]1CC[C@H](Nc2nc(NC3CCN(S(=O)(=O)c4ccccc4[N+](=O)[O-])CC3)c3ncn(C4CCCC4)c3n2)CC1 [compound 143, trans-N^2-(4-Amino-cyclohexyl)-9-cyclopentyl-N^6-[1-(2-nitro-benzenesulfonyl)-piperidin-4-yl]-9H-purine-2,6-diamine dihydrochloride] | 0.61 µM | 7.5 nM | 28 nM | 154 nM | 0.45 µM
10 | CC(C)n1cnc2c(NC3CCN(S(=O)(=O)c4ccc(C#N)cc4)CC3)nc(N[C@H]3CC[C@H](N)CC3)nc21 [compound 145, trans-4-{4-[2-(4-Amino-cyclohexylamino)-9-isopropyl-9H-purin-6-ylamino]-piperidine-1-sulfonyl} -benzonitrile dihydrochloride] | 4.12 µM | 21 nM | 70 nM | 8800 nM | 6.32 µM
11 | CCNC(=O)N1CCC(Nc2nc(N[C@H]3CC[C@H](N)CC3)nc3c2ncn3C2CCCC2)CC1 [compound 148, trans-4-[2-(4-Amino-cyclohexylamino)-9-cyclopentyl-9H-purin-6-ylamino]-piperidine-1-carboxylic acid ethylamide dihydrochloride] | 4.7 µM | 197 nM | 61 nM | 699 nM | 4.79 µM
12 | COc1ccc(NC(=O)N2CCC(Nc3nc(N[C@H]4CC[C@H](N)CC4)nc4c3ncn4C3CCCC3)CC2)c(OC)c1 [compound 151, trans-4-[2-(4-Amino-cyclohexylamino)-9-cyclopentyl-9H-purin-6-ylamino]-piperidine-1-carboxylic acid (2,4-dimethoxy-phenyl)-amide dihydrochloride] | 0.44 µM | 60 nM | 32 nM | 391 nM | 0.5 µM
13 | N[C@H]1CC[C@H](Nc2nc(NC3CCN(C(=O)Nc4cccc(F)c4)CC3)c3ncn(C4CCCC4)c3n2)CC1 [compound 152, trans-4-[2-(4-Amino-cyclohexylamino)-9-cyclopentyl-9H-purin-6-ylamino]-piperidine-1-carboxylic acid (3-fluoro-phenyl)-amide dihydrochloride] | 0.3 µM | 17 nM | 42 nM | 753 nM | 0.38 µM
14 | COc1ccc(NC(=O)N2CCC(Nc3nc(N[C@H]4CC[C@H](N)CC4)nc4c3ncn4C3CCCC3)CC2)cc1 [compound 153, trans-4-[2-(4-Amino-cyclohexylamino)-9-cyclopentyl-9H-purin-6-ylamino]-piperidine-1-carboxylic acid (4-methoxy-phenyl)-amide dihydrochloride] | 0.38 µM | 20 nM | 30 nM | 444 nM | 0.45 µM
15 | COc1cccc(NC(=O)N2CCC(Nc3nc(N[C@H]4CC[C@H](N)CC4)nc4c3ncn4C3CCCC3)CC2)c1 [compound 155, trans-4-[2-(4-Amino-cyclohexylamino)-9-cyclopentyl-9H-purin-6-ylamino]-piperidine-1-carboxylic acid (3-methoxy-phenyl)-amide dihydrochloride] | 0.33 µM | 20 nM | 43 nM | 482 nM | 0.44 µM
16 | CC(C)NC(=O)N1CCC(Nc2nc(N[C@H]3CC[C@H](N)CC3)nc3c2ncn3C2CCCC2)CC1 [compound 157, trans-4-[2-(4-Amino-cyclohexylamino)-9-cyclopentyl-9H-purin-6-ylamino]-piperidine-1-carboxylic acid isopropylamide dihydrochloride] | 2.54 µM | 310 nM | 32 nM | 2040 nM | 3.34 µM
17 | N[C@H]1CC[C@H](Nc2nc(NC3CCN(C(=O)Nc4ccccc4C(F)(F)F)CC3)c3ncn(C4CCCC4)c3n2)CC1 [compound 158, trans-4-[2-(4-Amino-cyclohexylamino)-9-cyclopentyl-9H-purin-6-ylamino]-piperidine-1-carboxylic acid (2-trifluoromethyl-phenyl)-amide dihydrochloride] | 0.29 µM | 82 nM | 87 nM | 825 nM | 0.38 µM
18 | C[C@@H](NC(=O)N1CCC(Nc2nc(N[C@H]3CC[C@H](N)CC3)nc3c2ncn3C2CCCC2)CC1)c1ccccc1 [compound 160, trans-4-[2-(4-Amino-cyclohexylamino)-9-cyclopentyl-9H-purin-6-ylamino]-piperidine-1-carboxylic acid ((R)-1-phenyl-ethyl)-amide dihydrochloride] | 1.36 µM | 85 nM | 94 nM | 357 nM | 1.69 µM
19 | C[C@H](NC(=O)N1CCC(Nc2nc(N[C@H]3CC[C@H](N)CC3)nc3c2ncn3C2CCCC2)CC1)c1ccccc1 [compound 161, trans-4-[2-(4-Amino-cyclohexylamino)-9-cyclopentyl-9H-purin-6-ylamino]-piperidine-1-carboxylic acid ((S)-1-phenyl-ethyl)-amide dihydrochloride] | 1.01 µM | 56 nM | 78 nM | 601 nM | 0.96 µM
20 | C=CCNC(=O)N1CCC(Nc2nc(N[C@H]3CC[C@H](N)CC3)nc3c2ncn3C2CCCC2)CC1 [compound 164, trans-4-[2-(4-Amino-cyclohexylamino)-9-cyclopentyl-9H-purin-6-ylamino]-piperidine-1-carboxylic acid allylamide dihydrochloride] | 5.03 µM | 151 nM | 86 nM | 739 nM | 4.99 µM
